According to EP1247803A2, “Indolinone compounds suitable for modulation of protein kinases” (Sugen, Inc., priority 1996, dated 1998):

How the values were obtained:
[1] = tested on: MET; assay: MET biochemical kinase assay; parameters: species or system human; concentration or dose not given beside the values
How it was run: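 Plates coated with anti-rabbit Fc bind a rabbit anti-MET antibody that captures receptor from cell lysates; unbound protein is washed off before compound and ATP-containing kinase buffer go in.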

[2] = biological target: T1, EGFR (Homo sapiens, UniProt P00533); assay: EGFR ELISA assay (in vitro kinase activity, EGFR captured from A431 cell lysate); format: biochemical; parameters: concentration or dose not given beside the values
T1 construct: Add 7 ug A431 cell lysate per well (EGFR source); endogenous in cells; host or cells: A431
T1 sequence (P00533 25-1210): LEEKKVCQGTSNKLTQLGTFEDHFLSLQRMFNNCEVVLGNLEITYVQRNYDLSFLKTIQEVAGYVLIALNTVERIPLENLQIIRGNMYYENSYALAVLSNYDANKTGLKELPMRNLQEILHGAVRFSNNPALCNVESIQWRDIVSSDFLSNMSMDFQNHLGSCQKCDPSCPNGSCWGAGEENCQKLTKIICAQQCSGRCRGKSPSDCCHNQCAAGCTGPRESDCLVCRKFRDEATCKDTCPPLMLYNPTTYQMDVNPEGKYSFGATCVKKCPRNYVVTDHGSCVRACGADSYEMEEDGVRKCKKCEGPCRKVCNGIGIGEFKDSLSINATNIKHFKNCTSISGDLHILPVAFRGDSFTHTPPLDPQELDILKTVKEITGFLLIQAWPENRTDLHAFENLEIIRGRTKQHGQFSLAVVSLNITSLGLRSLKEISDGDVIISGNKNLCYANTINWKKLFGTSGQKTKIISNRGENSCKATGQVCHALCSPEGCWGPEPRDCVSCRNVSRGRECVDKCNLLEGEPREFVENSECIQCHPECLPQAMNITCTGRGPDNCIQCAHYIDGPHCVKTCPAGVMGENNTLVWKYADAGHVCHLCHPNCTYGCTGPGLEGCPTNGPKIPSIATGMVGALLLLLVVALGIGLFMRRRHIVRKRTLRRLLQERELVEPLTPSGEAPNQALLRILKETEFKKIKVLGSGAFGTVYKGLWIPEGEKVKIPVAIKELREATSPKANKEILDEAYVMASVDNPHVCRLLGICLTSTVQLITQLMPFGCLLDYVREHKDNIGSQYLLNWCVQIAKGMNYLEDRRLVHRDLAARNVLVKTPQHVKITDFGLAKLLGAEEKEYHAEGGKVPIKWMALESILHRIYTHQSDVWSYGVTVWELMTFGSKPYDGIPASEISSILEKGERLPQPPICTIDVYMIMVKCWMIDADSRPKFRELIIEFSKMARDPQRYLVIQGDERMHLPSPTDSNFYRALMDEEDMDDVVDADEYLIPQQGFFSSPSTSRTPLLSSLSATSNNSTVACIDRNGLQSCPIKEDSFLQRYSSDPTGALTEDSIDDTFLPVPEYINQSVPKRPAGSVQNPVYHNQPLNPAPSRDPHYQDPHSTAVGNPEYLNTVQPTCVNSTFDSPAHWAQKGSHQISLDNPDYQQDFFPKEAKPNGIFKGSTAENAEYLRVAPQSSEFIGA
How it was run: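 EGFR from A431 lysate was captured on anti-EGFR antibody-coated plates and preincubated with compounds for 30 min. Autophosphorylation ran 5 min with 3 uM ATP and 5 mM MnCl2 (final), stopped with 20 mM EDTA. Phosphotyrosine was detected by anti-pTyr ELISA with ABTS/H2O2, read at 410 nm.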

[3] = biological target: PDGF-R (Homo sapiens, UniProt P09619); assay: PDGF-R ELISA; format: cell-based
Chain of PDGF-R (P09619 33-1106, species assumed): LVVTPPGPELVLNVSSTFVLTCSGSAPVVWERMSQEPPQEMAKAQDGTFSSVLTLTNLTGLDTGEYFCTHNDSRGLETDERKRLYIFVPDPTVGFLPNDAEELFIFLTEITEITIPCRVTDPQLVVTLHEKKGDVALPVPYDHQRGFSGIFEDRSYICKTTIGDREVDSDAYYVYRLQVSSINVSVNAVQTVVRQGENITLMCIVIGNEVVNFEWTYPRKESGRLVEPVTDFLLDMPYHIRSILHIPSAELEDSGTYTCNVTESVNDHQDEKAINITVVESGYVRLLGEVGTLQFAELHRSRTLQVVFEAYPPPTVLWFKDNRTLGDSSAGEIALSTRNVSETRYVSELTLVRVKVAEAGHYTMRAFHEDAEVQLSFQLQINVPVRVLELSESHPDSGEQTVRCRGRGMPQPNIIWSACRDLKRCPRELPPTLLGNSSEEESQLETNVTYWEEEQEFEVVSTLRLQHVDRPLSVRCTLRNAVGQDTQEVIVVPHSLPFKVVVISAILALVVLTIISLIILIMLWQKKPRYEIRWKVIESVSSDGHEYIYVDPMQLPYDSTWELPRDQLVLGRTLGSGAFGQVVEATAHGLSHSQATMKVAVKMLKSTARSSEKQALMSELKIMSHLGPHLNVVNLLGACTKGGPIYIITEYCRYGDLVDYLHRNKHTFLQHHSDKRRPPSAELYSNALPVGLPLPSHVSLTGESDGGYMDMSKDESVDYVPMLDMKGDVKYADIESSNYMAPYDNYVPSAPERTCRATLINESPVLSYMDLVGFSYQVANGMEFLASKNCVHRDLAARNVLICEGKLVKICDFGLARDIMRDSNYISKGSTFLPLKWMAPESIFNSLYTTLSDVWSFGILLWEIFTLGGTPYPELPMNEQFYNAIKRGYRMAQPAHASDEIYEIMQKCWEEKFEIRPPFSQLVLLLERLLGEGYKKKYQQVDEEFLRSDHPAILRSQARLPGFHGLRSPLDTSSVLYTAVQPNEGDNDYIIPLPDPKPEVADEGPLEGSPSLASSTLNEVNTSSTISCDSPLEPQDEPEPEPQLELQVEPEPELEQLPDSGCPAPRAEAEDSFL
Excerpt: A PDGF-R ELISA is described in International Patent Publication No. WO 96/40116, published December 19, 1996 by Tang et al.

SMILES | Met Kinase % Inhibition [1] [%] | Biochem EGFR %Inhibition [2] [%] | PDGF Kinase %Inhibition [3] [%]
COc1cc(C)cc(O)c1C=C1C(=O)Nc2ccc(I)cc21 [10725/B06] | 53.3 | -13.7 | 31.3
O=C1Nc2ccc(S(=O)(=O)Nc3ccc(C(F)(F)F)cc3)cc2C1=Cc1ccc[nH]1 [10717/E09] | 19.2 | -5.8 | 
CC(C)c1cc(C=C2C(=O)Nc3ccc(S(=O)(=O)Nc4ccc(C(F)(F)F)cc4)cc32)cc(C(C)C)c1O [10724/E06] | 25.8 | 1.6 | 6.3
COc1cc(C)cc(O)c1C=C1C(=O)Nc2c(Br)cc(Br)cc21 [10725/A06] | 71.7 | -9.5 | 40.9
O=C1Nc2ccc(S(=O)(=O)N3CCOCC3)cc2C1=Cc1cccs1 [10717/F03] | 42.8 | -4.7 | 
CCOc1ccccc1C=C1C(=O)Nc2ccc(S(=O)(=O)N3CCOCC3)cc21 [10717/F02] | 30.4 | 6.2 | 
CCc1ccc(C=C2C(=O)Nc3ccc(S(=O)(=O)Nc4ccc(C(F)(F)F)cc4)cc32)o1 [10724/E10] | 84.0 | 41.4 | 34.9
O=CN1CCN(c2ccc(C=C3C(=O)Nc4ccc(I)cc43)cc2)CC1 [10725/B07] | 74.0 | 45.8 | 100.8
CNS(=O)(=O)c1ccc2c(c1)C(=Cc1cc3ccccc3o1)C(=O)N2 [10724/D07] | 38.1 | 25.6 | 7.0
O=C1Nc2c(Br)cc(Br)cc2C1=Cc1sccc1Br [10725/A02] | 46.6 | 3.9 | -14.2
O=C1Nc2c(Br)cc(Br)cc2C1=Cc1cc2ccccc2o1 [10724/A07] | 58.7 | 18.3 | 16.1
Cc1c(Br)ccc2c1C(=Cc1ccc(O)c([N+](=O)[O-])c1)C(=O)N2 [10724/C03] | 68.7 | 16.5 | 4.3
O=C1Nc2ccc(CCCl)cc2C1=Cc1cccn1-c1ccc(Cl)cc1 [10724/G09] | -2.8 | -21.7 | -18.0
Cn1cccc1C=C1C(=O)Nc2c(Br)cc(Br)cc21 [10717/A04] | 37.4 | 29.0 | 
O=C1Nc2ccc(I)cc2C1=Cc1c[nH]cn1 [10725/B11] | 76.3 | 43.0 | 66.3
CNS(=O)(=O)c1ccc2c(c1)C(=Cc1cc3c4c(c1O)CCCN4CCC3)C(=O)N2 [10724/D05] | 36.1 | -8.4 | 35.6
CNS(=O)(=O)c1ccc2c(c1)C(=Cc1cc(C(C)C)c(O)c(C(C)C)c1)C(=O)N2 [10724/D06] | 23.0 | -12.4 | 40.4
O=C1Nc2ccc(CCCl)cc2C1=Cc1cc2c3c(c1O)CCCN3CCC2 [10724/G05] | 61.0 | -20.8 | -10.3
Cc1cc(C=C2C(=O)Nc3ccc(I)cc32)[nH]n1 [10725/B05] | 68.3 | 20.4 | 44.7
O=C1Nc2c(Br)cc(Br)cc2C1=Cc1ccc(O)c([N+](=O)[O-])c1 [10724/A03] | 30.7 | 17.2 | 0.1
Cc1csc2sc(C=C3C(=O)Nc4c(Br)cc(Br)cc43)c(C)c12 [10724/A11] | 27.2 | -16.6 | 29.3

SMILES | Met Kinase % Inhibition [1] [%] | Biochem EGFR %Inhibition [2] [%] | PDGF Kinase %Inhibition [3] [%]
O=C1Nc2ccc(I)cc2C1=Cc1sccc1Br [10725/B02] | 66.9 | 2.5 | -7.5
Cc1c(Br)ccc2c1C(=Cc1cc(C(C)C)c(O)c(C(C)C)c1)C(=O)N2 [10724/C06] | 15.4 | -2.4 | 34.9
O=C1Nc2ccc(S(=O)(=O)Nc3ccc(C(F)(F)F)cc3)cc2C1=Cc1ccc(O)c([N+](=O)[O-])c1 [10724/E03] | 85.8 | 33.1 | 14.7
CCc1ccc(C=C2C(=O)Nc3c(Br)cc(Br)cc32)o1 [10724/A10] | 83.8 | 40.0 | 28.6
O=C1Nc2c(Br)cc(Br)cc2C1=Cc1cc2c3c(c1O)CCCN3CCC2 [10724/A05] | 68.4 | 20.3 | 5.0
O=C1Nc2ccc(S(=O)(=O)Nc3ccc(C(F)(F)F)cc3)cc2C1=Cc1ccc([N+](=O)[O-])c(O)c1 [10724/E04] | 93.3 | 8.9 | -32.6
Cc1[nH]c(C=C2C(=O)Nc3ccc(S(=O)(=O)Nc4ccc(C(F)(F)F)cc4)cc32)c(Br)c1Br [10717/E11] | 75.1 | 44.9 | 
O=C1Nc2c(Br)cc(Br)cc2C1=Cc1ccc([N+](=O)[O-])c(O)c1 [10724/A04] | 62.6 | 15.4 | 5.0
CNS(=O)(=O)c1ccc2c(c1)C(=Cc1ccc([N+](=O)[O-])c(O)c1)C(=O)N2 [10724/D04] | 70.5 | 5.4 | -1.3
O=C1Nc2ccc(I)cc2C1=Cc1c(Br)cnn1-c1ccc(Cl)cc1 [10725/B10] | 69.9 | 53.3 | 26.0
Cc1c(Br)cc(Br)c2c1C(=Cc1c(Br)cnn1-c1ccc(Cl)cc1)C(=O)N2 [10725/A10] | 43.2 | 14.0 | 33.7
CNS(=O)(=O)c1ccc2c(c1)C(=Cc1ccc(N(C)C)c3ccccc13)C(=O)N2 [10724/D02] | 37.5 | 40.5 | -9.6
O=C1Nc2ccc(S(=O)(=O)N3CCOCC3)cc2C1=Cc1ccc(F)cc1 [10717/F05] | 21.5 | -20.1 | 
CC(C)c1cc(C=C2C(=O)Nc3ccc(I)cc32)cc(C(C)C)c1O [10724/B06] | 52.1 | 30.9 | 43.2
CC(C)(C)c1cc(C=C2C(=O)Nc3ccc(CCCl)cc32)c(O)c(C(C)(C)C)c1 [10723/G11] | 39.4 | -35.0 | -7.7
Cc1c(Br)ccc2c1C(=Cc1ccc(N(C)C)c3ccccc13)C(=O)N2 [10724/C02] | 40.7 | 53.6 | -9.0
Cc1csc2sc(C=C3C(=O)Nc4ccc(I)cc43)c(C)c12 [10724/B11] | 43.0 | -23.2 | 23.0
Cn1cccc1C=C1C(=O)Nc2ccc(S(=O)(=O)N3CCOCC3)cc21 [10717/F04] | 11.4 | -15.7 | 
O=C1Nc2ccc(S(=O)(=O)N3CCOCC3)cc2C1=Cc1c[nH]c2ccccc12 [10717/F06] | 49.0 | -22.8 | 
COc1cccc(O)c1C=C1C(=O)Nc2ccc(S(=O)(=O)Nc3ccc(C(F)(F)F)cc3)cc21 [10717/E10] | 35.9 | -6.1 | 
